# PubChem BioAssay AID1963967 (Molecular Pharmacology Branch, DTP, NCI, 2024)
# Tested on: 855422-203-R-J1-PDC spheroids with HUVEC/MSC, viability
# Assay: Anticancer human tumor 855422-203-R-J1-PDC patient-derived bladder carcinoma cell line growth inhibition [PI3K]
# Details: for IC50: curve of first compound; for viability, T/C: stronger effect = lower value
# Text: Combinatorial screen of targeted agents with the PI3K inhibitors inavolisib, alpelisib, duvelisib, and copanlisib in multi-cell type tumor spheroids
# A high-throughput screen of multi-cell type tumor spheroids was designed to identify active combinations of targeted small molecules and PI3K pathway inhibitors. Complex spheroids include a stromal component modeled by human endothelial cells (HUVEC) and fibroblasts modeled by human mesenchymal stem cells (MSCs). The concentration ranges selected for each drug and investigational agent were based upon clinically achievable concentrations if the clinical Cmax of the agent was known.
# Compounds. The drugs and investigational agents: inavolisib (NSC800729), alpelisib (NSC765974), duvelisib (NSC772469), copanlisib (NSC816437), ipatasertib (NSC767898), afuresertib (NSC778305), talazoparib (NSC767125), sapanisertib (NSC764658), selumetinib (NSC741078), tovorafenib (DAY101, NSC766906), vemurafenib (NSC761431), ravoxertinib (NSC781343), sotorasib (NSC818433), MRTX1133 (NSC 836407), abemaciclib (NSC 768073), palbociclib (NSC758247), venetoclax (NSC 766270), SY5609 (NSC837396), enzalutamide (NSC755605), and darolutamide (NSC825331), were obtained from the National Cancer Institute (NCI) Developmental Therapeutics Program Chemical Repository. The FDA-approved anticancer drug set is available from the NCI Developmental Therapeutics Program. […] The stock solutions were prepared in dimethyl sulfoxide (DMSO, Sigma-Aldrich, St. Louis, MO, cat. D2650) at 800-fold the tested concentration and stored at -70 degrees C prior to their use. All drugs and investigational agents were tested over a range starting from a high concentration at or near the clinical Cmax and decreasing in half-log increments. If the clinical Cmax for an agent had not been determined, the highest concentration tested was 10 microM.
# Cell Culture. All cells were maintained in an incubator at 37 degrees C and 5% CO2 with 95% humidity. The PDC lines were cultured according to standard operating procedures established by the NCI PDMR (https://pdmr.cancer.gov/sops/default.htm). All PDCs were thawed and cultured in Matrigel-coated flasks prepared with a working solution of 1X Ham's F-12 nutrient mix, without supplementation (Invitrogen, Waltham, MA, cat. 11765054), 100 U/mL penicillin-streptomycin (Invitrogen, cat. 15140122), and 2.5% Matrigel (Corning Inc., Corning, NY, cat. 354248) for the first three passages. The 354836-022-R-J1-PDC, 475296-252-R-J1-PDC, and 997726-040-R-J2-PDC lines were cultured in 6A media, which includes advanced DMEM/F-12 (Thermo Fisher Scientific, cat. 12634028), 10 mM HEPES (Thermo Fisher Scientific, cat. 15630080), 1X GlutaMAX supplement (Thermo Fisher Scientific, cat. 35050061), 0.1 mg/mL primocin (InvivoGen, San Diego, CA, cat. ant-pm-2), 10% defined fetal bovine serum, heat inactivated (HyClone Laboratories Inc., Logan, UT, cat. SH30070.03HI), 50% L-WRN conditioned media (ATCC, cat. CRL-3276), 1.25 mM N-Acetyl-L-cysteine (Sigma-Aldrich, cat. A9165), 10 mM nicotinamide (Sigma-Aldrich, cat. N0636), 1X B-27 supplement (Thermo Fisher Scientific, cat. 17504044), 1X N-2 supplement (Thermo Fisher Scientific, cat. 17502048), and 10 microM Y-27632 dihydrochloride (Tocris Bioscience, Bristol, United Kingdom, cat. 1254). The 624824-186-R-J2-PDC line was cultured in 6C/Colon 1B media, which includes all 6A media components plus 50 ng/mL human EGF recombinant protein (Thermo Fisher Scientific, cat. PHG0311). […]
# [1] = second compound 0.00316 µM, first compound 0.0316 µM
# [2] = second compound 0.00316 µM, first compound 0.1 µM
# [3] = second compound 0.01 µM, first compound 0.0316 µM
# [4] = second compound 0.01 µM, first compound 0.1 µM
# [5] = second compound 0.0316 µM, first compound 0.0316 µM
# [6] = second compound 0.0316 µM, first compound 0.1 µM
# [7] = second compound 0.1 µM, first compound 0.0316 µM
# [8] = second compound 0.1 µM, first compound 0.1 µM
# [9] = second compound 0.316 µM, first compound 0.0316 µM
# [10] = second compound 0.316 µM, first compound 0.1 µM
# [11] = second compound 1 µM, first compound 0.0316 µM
# [12] = second compound 1 µM, first compound 0.1 µM
# 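Also: agents incubated with spheroids for one week before read-out.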
# 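For viability, T/C in this document: 100% = DMSO vehicle-treated control wells.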
smiles,measurement,setting,value
C[C@@H](NC(=O)c1ncnc(N)c1Cl)c1ncc(C(=O)Nc2cc(C(F)(F)F)c(Cl)cn2)s1 + CC(Nc1ccc2c(c1)OCCn1cc(N3C(=O)OCC3C(F)F)nc1-2)C(N)=O,IC50,second compound 0.00316 µM,> 10000 nM
same,IC50,second compound 0.01 µM,> 10000 nM
same,IC50,second compound 0.0316 µM,> 10000 nM
same,IC50,second compound 0.1 µM,> 10000 nM
same,IC50,second compound 0.316 µM,< 31.6 nM
same,IC50,second compound 1 µM,< 31.6 nM
same,"viability, T/C",[1],106%
same,"viability, T/C",[2],83%
same,"viability, T/C","second compound 0.00316 µM, first compound 0.316 µM",122%
same,"viability, T/C","second compound 0.00316 µM, first compound 1 µM",83.3%
same,"viability, T/C","second compound 0.00316 µM, first compound 3.16 µM",116%
same,"viability, T/C","second compound 0.00316 µM, first compound 10 µM",109%
same,"viability, T/C",[3],99.8%
same,"viability, T/C",[4],86.2%
same,"viability, T/C","second compound 0.01 µM, first compound 0.316 µM",85.4%
same,"viability, T/C","second compound 0.01 µM, first compound 1 µM",84.9%
same,"viability, T/C","second compound 0.01 µM, first compound 3.16 µM",118%
same,"viability, T/C","second compound 0.01 µM, first compound 10 µM",98.4%
same,"viability, T/C",[5],79.8%
same,"viability, T/C",[6],85.4%
same,"viability, T/C","second compound 0.0316 µM, first compound 0.316 µM",102%
same,"viability, T/C","second compound 0.0316 µM, first compound 1 µM",83%
same,"viability, T/C","second compound 0.0316 µM, first compound 3.16 µM",95.5%
same,"viability, T/C","second compound 0.0316 µM, first compound 10 µM",69.3%
same,"viability, T/C",[7],58.7%
same,"viability, T/C",[8],61.5%
same,"viability, T/C","second compound 0.1 µM, first compound 0.316 µM",80%
same,"viability, T/C","second compound 0.1 µM, first compound 1 µM",68%
same,"viability, T/C","second compound 0.1 µM, first compound 3.16 µM",81.8%
same,"viability, T/C","second compound 0.1 µM, first compound 10 µM",35%
same,"viability, T/C",[9],47.3%
same,"viability, T/C",[10],49.1%
same,"viability, T/C","second compound 0.316 µM, first compound 0.316 µM",49.7%
same,"viability, T/C","second compound 0.316 µM, first compound 1 µM",54%
same,"viability, T/C","second compound 0.316 µM, first compound 3.16 µM",43.4%
same,"viability, T/C","second compound 0.316 µM, first compound 10 µM",23.9%
same,"viability, T/C",[11],34.8%
same,"viability, T/C",[12],40.4%
same,"viability, T/C","second compound 1 µM, first compound 0.316 µM",32.6%
same,"viability, T/C","second compound 1 µM, first compound 1 µM",33.6%
same,"viability, T/C","second compound 1 µM, first compound 3.16 µM",30.9%
same,"viability, T/C","second compound 1 µM, first compound 10 µM",14.1%
Cn1ncnc1[C@H]1c2n[nH]c(=O)c3cc(F)cc(c23)N[C@@H]1c1ccc(F)cc1 + CC(Nc1ccc2c(c1)OCCn1cc(N3C(=O)OCC3C(F)F)nc1-2)C(N)=O,IC50,second compound 0.00316 µM,> 100 nM
same,IC50,second compound 0.01 µM,> 100 nM
same,IC50,second compound 0.0316 µM,> 100 nM
same,IC50,second compound 0.1 µM,> 100 nM
same,IC50,second compound 0.316 µM,11.2 nM
same,IC50,second compound 1 µM,< 0.316 nM
same,"viability, T/C","second compound 0.00316 µM, first compound 0.000316 µM",104%
same,"viability, T/C","second compound 0.00316 µM, first compound 0.001 µM",91.8%
same,"viability, T/C","second compound 0.00316 µM, first compound 0.00316 µM",107%
same,"viability, T/C","second compound 0.00316 µM, first compound 0.01 µM",87.5%
same,"viability, T/C",[1],97.8%
same,"viability, T/C",[2],109%
same,"viability, T/C","second compound 0.01 µM, first compound 0.000316 µM",114%
same,"viability, T/C","second compound 0.01 µM, first compound 0.001 µM",92.5%
same,"viability, T/C","second compound 0.01 µM, first compound 0.00316 µM",97%
same,"viability, T/C","second compound 0.01 µM, first compound 0.01 µM",99.4%
same,"viability, T/C",[3],100%
same,"viability, T/C",[4],104%
same,"viability, T/C","second compound 0.0316 µM, first compound 0.000316 µM",96.4%
same,"viability, T/C","second compound 0.0316 µM, first compound 0.001 µM",92.3%
same,"viability, T/C","second compound 0.0316 µM, first compound 0.00316 µM",90.6%
same,"viability, T/C","second compound 0.0316 µM, first compound 0.01 µM",88.3%
same,"viability, T/C",[5],96%
same,"viability, T/C",[6],91.8%
same,"viability, T/C","second compound 0.1 µM, first compound 0.000316 µM",74.7%
same,"viability, T/C","second compound 0.1 µM, first compound 0.001 µM",72.9%
same,"viability, T/C","second compound 0.1 µM, first compound 0.00316 µM",55.5%
same,"viability, T/C","second compound 0.1 µM, first compound 0.01 µM",69%
same,"viability, T/C",[7],78%
same,"viability, T/C",[8],80.8%
same,"viability, T/C","second compound 0.316 µM, first compound 0.000316 µM",56.4%
same,"viability, T/C","second compound 0.316 µM, first compound 0.001 µM",56%
same,"viability, T/C","second compound 0.316 µM, first compound 0.00316 µM",42.4%
same,"viability, T/C","second compound 0.316 µM, first compound 0.01 µM",56.1%
same,"viability, T/C",[9],54.6%
same,"viability, T/C",[10],40.7%
same,"viability, T/C","second compound 1 µM, first compound 0.000316 µM",39.1%
same,"viability, T/C","second compound 1 µM, first compound 0.001 µM",36.7%
same,"viability, T/C","second compound 1 µM, first compound 0.00316 µM",35.7%
same,"viability, T/C","second compound 1 µM, first compound 0.01 µM",35.6%
same,"viability, T/C",[11],33.5%
same,"viability, T/C",[12],27.2%
